One assay concerns MEIS1 mRNA expression. Briefly: MEIS1 mRNA expression assay (Quantigene Singleplex) in MOLM14 cells. Particulars: Homo sapiens, MOLM-14, 48 h, 48 hours incubation. It counts as cell-based, human. As for the experimental part:
2b) MEIS1 mRNA Expression Assay
MEIS1 mRNA expression upon treatment of compound was examined by Quantigene Singleplex assay (Thermo Fisher Scientific). This technology allows for direct quantification of mRNA targets using probes hybridizing to defined target sequences of interest and the signal is detected using a Multimode plate reader Envision (PerkinElmer). The MOLM14 cell line was used for this experiment. Cells were plated in 96-well plates at 3,750 cells/well in the presence of increasing concentrations of compounds. After incubation of 48 hours with compounds, cells were lysed in lysis buffer and incubated for 45 minutes at 55° C. Cell lysates were mixed with human MEIS specific capture probe or human RPL28 (Ribosomal Protein L28) specific probe as a normalization control, as well as blocking probes. Cell lysates were then transferred to the custom assay hybridization plate (Thermo Fisher Scientific) and incubated for 18 to 22 hours at 55° C. Subsequently, plates were washed to remove unbound materials followed by sequential addition of preamplifiers, amplifiers, and label probe. Signals (═gene counts) were measured with a Multimode plate reader Envision. IC50S were calculated by dose-response modelling using appropriate software. For all non-housekeeper genes response equal counts corrected for background and relative expression. For each sample, each test gene signal (background subtracted) was divided by the normalization gene signal (RPL28: background subtracted). Fold changes were calculated by dividing the normalized values for the treated samples by the normalized values for the DMSO treated sample. Fold changes of each target gene were used for the calculation of IC50S.

Assay [1] deals with T1, menin/MLL (terbium chelate-labeled menin, FITC-MBM1 peptide) (Homo sapiens, UniProt O00255, T541A).
T1 construct: Menin (a.a 1-610-6xhis tag, 2.3 mg/mL in 20 mM Hepes)
T1 sequence (O00255 with tags, fused parts or gaps T541A): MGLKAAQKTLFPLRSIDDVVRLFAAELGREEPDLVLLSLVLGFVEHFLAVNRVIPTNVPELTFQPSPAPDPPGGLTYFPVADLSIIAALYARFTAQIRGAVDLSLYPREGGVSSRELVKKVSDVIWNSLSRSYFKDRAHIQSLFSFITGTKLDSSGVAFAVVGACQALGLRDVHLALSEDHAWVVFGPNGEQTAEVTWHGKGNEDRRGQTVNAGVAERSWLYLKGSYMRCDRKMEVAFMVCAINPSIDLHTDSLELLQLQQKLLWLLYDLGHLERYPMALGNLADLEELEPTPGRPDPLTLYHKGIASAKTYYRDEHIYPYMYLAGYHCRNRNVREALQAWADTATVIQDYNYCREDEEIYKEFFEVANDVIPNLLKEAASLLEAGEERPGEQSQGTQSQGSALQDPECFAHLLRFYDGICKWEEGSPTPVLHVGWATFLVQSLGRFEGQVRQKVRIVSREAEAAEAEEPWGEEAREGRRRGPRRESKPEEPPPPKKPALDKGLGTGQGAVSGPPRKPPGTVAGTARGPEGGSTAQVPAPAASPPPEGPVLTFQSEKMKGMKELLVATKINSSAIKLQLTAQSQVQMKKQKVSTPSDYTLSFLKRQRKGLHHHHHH
Briefly: Menin/MLL homogenous time-resolved fluorescence (HTRF) assay. The assay is classed as binding. Conditions: 30 min incubation. As for the experimental part:
1) Menin/MLL Homogenous Time-Resolved Fluorescence (HTRF) Assay
To an untreated, white 384-well microtiter plate was added 40 nL 200× test compound in DMSO and 4 μL 2× terbium chelate-labeled menin (vide infra for preparation) in assay buffer (40 mM Tris HCl, pH 7.5, 50 mM NaCl. 1 mM DTT (dithiothreitol) and 0.05% Pluronic F-127). After incubation of test compound and terbium chelate-labeled menin for 30 min at ambient temperature, 4 μL 2×FITC-MBM1 peptide (FITC-β-alanine-[…]-NH2) (“FITC” means fluorescein isothiocyanate) in assay buffer was added, the microtiter plate centrifuged at 1000 rpm for 1 min and the assay mixtures incubated for 15 min at ambient temperature. The relative amount of menin FITC-MBM1 complex present in an assay mixture is determined by measuring the homogenous time-resolved fluorescence (HTRF) of the terbium/FITC donor/acceptor fluorphore pair using an EnVision microplate reader (ex. 337 nm/terbium em. 490 nm/FITC em. 520 nm) at ambient temperature. The degree of fluorescence resonance energy transfer (the HTRF value) is expressed as the ratio of the fluorescence emission intensities of the FITC and terbium fluorophores (F^em520 nm/F^em490 nm). The final concentrations of reagents in the binding assay are […] terbium chelate-labeled menin, 75 nM FITC-MBM1 peptide and 0.5% DMSO in assay buffer. Dose-response titrations of test compounds are conducted using an 11 point, four-fold serial dilution scheme, starting typically at 10 μM.
Compound potencies were determined by first calculating % inhibition at each compound concentration according to equation 1:
% inhibition=((HC−LC)−(HTRF^compound−LC))/(HC−LC))*100 (Eqn 1)
Where LC and HC are the HTRF values of the assay in the presence or absence of a saturating concentration of a compound that competes with FITC-MBM1 for binding to menin, and HTRF^compound is the measured HTRF value in the presence of the test compound. HC and LC HTRF values represent an average of at least 10 replicates per plate.
% inhibition=Bottom+(Top−Bottom)/(1+10^((log/C50−log[cmpd])*h)) (Eqn 2)
Where Bottom and Top are the lower and upper asymptotes of the dose-response curve, respectively, IC50 is the concentration of compound that yields 50% inhibition of signal and h is the Hill coefficient.
Preparation of Terbium cryptate labeling of Menin: Menin (a.a 1-610-6xhis tag, 2.3 mg/mL in 20 mM Hepes (2-[4-(2-Hydroxyethyl)-1-piperazinyl]ethane sulfonic acid), 80 mM NaCl, 5 mM DTT (Dithiothreitol), pH 7.5) was labeled with terbium cryptate as follows. 200 μg of Menin was buffer exchanged into 1×Hepes buffer. 6.67 μM Menin was incubated with 8-fold molar excess NHS (N-hydroxysuccinimide)-terbium cryptate for 40 minutes at room temperature. Half of the labeled protein was purified away from free label by running the reaction over a NAP5 column with elution buffer (0.1M Hepes, pH 7+0.1% BSA (bovine serum albumin)). The other half was eluted with 0.1 M phosphate buffered saline (PBS), pH7. 400 μl of eluent was collected for each, aliquoted and frozen at −80° C. The final concentration of terbium-labeled Menin protein was 115 μg/mL in Hepes buffer and 85 μg/mL in PBS buffer, respectively.

Each structure is given as a SMILES string.

The term IC50 denotes the concentration needed to halve the response being measured. Higher therefore signals weaker potency in that assay.

Consider `CC(=O)N1CC2C(CN3CC(Cc4cn(-c5ccc(F)cc5C(=O)N(C)C(C)C)c5cncc(C)c45)C3)C2C1` (stereo not shown) [Compound 305], for which the figures for the IC50 (in the assay with MEIS1 mRNA expression; in assay [1]) were about 297 nM and 0.146 nM, respectively.

Consider `CC(=O)N1CCC(CN2C[C@H](Cc3cn(-c4ccc(F)cc4C(=O)N(C)C(C)C)c4cncc(C)c34)C[C@H]2C)CC1` [Compound 130], for which the IC50 in the assay with MEIS1 mRNA expression worked out at 314 nM; in assay [1] it was 1.2 nM.

As to `Cc1cncc2c1c(C[C@@H]1CCN([C@@H](CCO)C3CCOCC3)C1)cn2-c1ccc(F)cc1C(=O)N(C)C(C)C` (single isomer, unassigned) [Compound 253b], the IC50 with MEIS1 mRNA expression was over 1000 nM; in assay [1], 1.73 nM.

On to `Cc1cncc2c1c(C[C@@H]1CCN([C@@H]3CCNC(=O)CC3)C1)cn2-c1ccc(F)cc1C(=O)N(C)C(C)C` (single isomer, unassigned) [Compound 139b], for which the IC50 in the assay on MEIS1 mRNA expression stood at 716 nM; in assay [1], 0.087 nM.

Turning to `CC(=O)N1C[C@@H]2[C@H](CN3CC[C@@H](Cc4cn(-c5ccc(F)cc5C(=O)N(C)C(C)C)c5cncc(C)c45)C3)[C@@H]2C1` [Compound 220], the IC50 with MEIS1 mRNA expression is over 1000 nM; in assay [1], 0.932 nM.

Consider `CCN(C(=O)c1cc(F)ccc1-n1cc(C[C@H]2CCN(CC3CCN(C(C)=O)CC3)C2)c2c(C)cncc21)C(C)C` [Compound 256], for which the IC50 was determined as 20 nM in the assay with MEIS1 mRNA expression and 0.073 nM in assay [1].

Regarding `CC(=O)N1C[C@@H]2CN(CCC[C@@H](C(C)C)N3CC[C@@H](Cc4cn(-c5ccc(F)cc5C(=O)N(C)C(C)C)c5cncc(Cl)c45)C3)C[C@H]2C1` (single isomer, unassigned) [Compound 18b], the IC50 in the assay on MEIS1 mRNA expression came out at 110 nM; in assay [1], 0.017 nM.

As for `CC(=O)N1[C@H](C)CC(N2CC(Cc3cn(-c4ccc(F)cc4C(=O)N(C)C(C)C)c4cncc(C)c34)C2)C[C@@H]1C` (stereo partly shown) [Compound 301], the IC50 was 144 nM with MEIS1 mRNA expression and 0.191 nM in assay [1].

As to `Cc1cncc2c1c(C[C@@H]1CCN(C[C@@H]3CCCCO3)C1)cn2-c1ccc(F)cc1C(=O)N(C)C(C)C` (single isomer, unassigned) [Compound 147b], the IC50 with MEIS1 mRNA expression was about 105 nM; in assay [1], 0.073 nM.

Regarding `Cc1cncc2c1c(CC1CN(CC3CCN(S(C)(=O)=O)CC3)C1)cn2-c1ccc(F)cc1C(=O)N(C)C(C)C` [Compound 64], the IC50 was about 39 nM in the assay on MEIS1 mRNA expression and 0.284 nM in assay [1].

In the case of `COCC(=O)N1CC(CN2CCC(Cc3cn(-c4ccc(F)cc4C(=O)N(C)C(C)C)c4cncc(C)c34)CC2)C1` [Compound 111], the IC50 in the assay on MEIS1 mRNA expression is about 707 nM; in assay [1], 0.745 nM.

Take `CC[C@@H]([C@H]1C[C@H](N2C[C@H]3CN(C(C)=O)C[C@@H]3C2)C1)N1CC[C@H](Cc2cn(-c3ccc(F)cc3C(=O)N(C)C(C)C)c3cncc(Cl)c23)C1` (single isomer, unassigned) [Compound 27d]: the half-maximal inhibitory concentration (IC50) came to 80 nM in the assay with MEIS1 mRNA expression and 0.013 nM in assay [1].

Take `CC(=O)N1CCC(CN2CC(Cc3cn(-c4ccc(F)cc4C(=O)N(C)C(C)C)c4cncc(C)c34)C2)C1` (stereo not shown) [Compound 94]: the IC50 with MEIS1 mRNA expression was found to be 309 nM; in assay [1] it was 0.079 nM.

As for `Cc1cncc2c1c(C[C@H]1CN[C@H](C)C1)cn2-c1ccc(F)cc1C(=O)N(C)C(C)C` [Compound 503], half-maximal inhibition in assay [1] (IC50) was put at 10.5 nM.

On to `COC(=O)c1cc(F)ccc1-n1cc(C[C@@H]2CCN(CC3CCNC(=O)CC3)C2)c2c(C)cncc21` (stereo partly shown) [Compound 533], for which, in assay [1], the half-maximal inhibitory concentration (IC50) amounted to 0.808 nM.

The molecule `CC(=O)N1CCC(N2CC[C@H](Cc3cn(-c4ccc(F)cc4C(=O)N(C)C(C)C)c4cncc(C)c34)C2)CC1` [Compound 156] gave an IC50 in assay [1] of 0.042 nM.

For the molecule `CC(=O)N1CC2CC(N3CC(Cc4cn(-c5ccc(F)cc5C(=O)N(C)C(C)C)c5cncc(C)c45)C3)CC2C1` (stereo not shown) [Compound 294b], the midpoint of inhibition in assay [1], the IC50, lay at 0.077 nM.

In turn, `COC(=O)c1cc(F)ccc1-n1cc(C[C@@H]2CCN(CC3CCN(C(C)=O)CC3)C2)c2c(C)cncc21` [Compound 528] displayed an IC50 in assay [1] of 0.514 nM.

`Cc1cncc2c1c(CC1CCNC1C)cn2-c1ccc(F)cc1C(=O)N(C)C(C)C` (stereo not shown) [Compound 508]: in assay [1], the midpoint of inhibition, the IC50, lay at 3.68 nM.

For `CNC(=O)c1cncc(N2CCC(N3CC(Cc4cn(-c5ccc(OC)cc5C(=O)N(C)C(C)C)c5cncc(C)c45)C3)CC2)n1` [Compound 76], inhibition in assay [1] was half-maximal at 0.304 nM (IC50).

`Cc1cncc2c1c(CC1CCNC1C)cn2-c1ccc(F)cc1C(=O)N(C)C(C)C` (stereo not shown) [Compound 507]: it took 6.6 nM to reach half-maximal inhibition in assay [1] (IC50).

For the molecule `COC(=O)c1cc(F)ccc1-n1cc(C[C@@H]2CCN(CC3CCOCC3)C2)c2c(C)cncc21` [Compound 534], the IC50 in assay [1] came to 0.556 nM.

With `CC(=O)N1CCC(CN2CC[C@@H](Cc3cn(-c4ccc(F)cc4S4(=O)=NCCC4)c4cncc(C)c34)C2)CC1` (mixture of isomers) [Compound 214], the IC50 in the assay on MEIS1 mRNA expression was over 1000 nM.

On to `Cc1cncc2c1c(C[C@@H]1CCN(CC3CCOCC3)C1)cn2-c1ccc(F)cc1C(=O)N1CCC[C@@H]1CO` [Compound 361], for which the IC50 in assay [1] worked out at 0.149 nM.

The molecule `Cc1cncc2c1c(CC1CN([C@@H]3CCN4C(=O)CCC4C3)C1)cn2-c1ccc(F)cc1C(=O)N(C)C(C)C` (single isomer, unassigned) [Compound 309a] had an IC50 in assay [1] of 1.3 nM.

On to `Cc1cncc2c1c(CC1CCNC1C)cn2-c1ccc(F)cc1C(=O)N(C)C(C)C` (stereo not shown) [Compound 509], for which the IC50 in assay [1] was found to be 4.53 nM.

On to `Cc1cncc2c1c(C[C@H]1CN[C@@H](C)C1)cn2-c1ccc(F)cc1C(=O)N(C)C(C)C` [Compound 505], for which half-maximal inhibition in assay [1] (IC50) required 3.11 nM.

In assay [1], `CC(=O)N1CCC(N2CC(Cc3cn(-c4ccc(F)cc4C(=O)N(C)C(C)C)c4cncc(C)c34)C2)C[C@H]1C` (single isomer, unassigned) [Compound 292a] had an IC50 of 0.132 nM.

On to `Cc1cncc2c1c(C[C@@H]1CN[C@@H](C)C1)cn2-c1ccc(F)cc1C(=O)N(C)C(C)C` [Compound 522], for which half-maximal inhibition in assay [1] (IC50) was put at 10.6 nM.

Consider `Cc1cncc2c1c(CC1CCNC1C)cn2-c1ccc(F)cc1C(=O)N(C)C(C)C` (stereo not shown) [Compound 510], for which the IC50 in assay [1] was determined as 2.95 nM.

The values above are taken from patent publication US20230250096A1, “SUBSTITUTED PHENYL-1H-PYRROLO[2,3-c] PYRIDINE DERIVATIVES” (Janssen Pharmaceutica NV, priority 2021, published 2023).
